The values that follow come from patent US20250302799A1, “PHARMACEUTICAL COMPOSITION CONTAINING FRAXETIN FOR PREVENTION OR TREATMENT OF ENDOMETRIOSIS” (Research & Business Foundation Sungkyunkwan University, priority 2024, published 2025).

Assay [1] relates to VK2/E6E7 cells. The assay can be described thus: Mitochondrial membrane potential by JC-1 staining. As to conditions: VK2/E6E7. In kind it is cell-based, human.
For another assay, the system named is endometrial cells. Put plainly: Western blot analysis (cell line not stated). The assay is classed as cell-based, human. Here is the method:
To analyze protein expression related to the development of endometriosis following fraxetin treatment, the inventors conducted western blot analysis.
Briefly, endometrial cells were treated with fraxetin in a dose-dependent manner or in combination with signaling pathway inhibitors. Total proteins were extracted from the treated cells, and protein quantification was performed using the Bradford protein assay (Bio-Rad, Hercules, CA, USA). The extracted proteins were then denatured at 95° C. for 5 minutes and subjected to electrophoresis on a 10% SDS/PAGE gel before being transferred to a nitrocellulose membrane. The membrane was subsequently incubated with primary and secondary antibodies, and target protein expression was analyzed using chemiluminescence detection reagents (Supersignal West Pico, Pierce, Rockford, IL, USA) with the ChemiDoc EQ system and Quantity One software (Bio-Rad).
(In western blotting, separated proteins are transferred to a membrane and probed.)

For assay [2], the system named is VK2/E6E7 cells. Put plainly: ROS generation by DCFH-DA flow cytometry. In kind it is cell-based, human. How it is done:
(§1) To assess the inhibitory effect of fraxetin on ROS generation in endometrial cells, the inventors used flow cytometry to measure ROS levels. In brief, endometriosis cells were stained with DCFH-DA (final concentration 10 μM) for 30 minutes and treated with 50 μM fraxetin in experimental groups, with or without 2 mM N-acetylcysteine (NAC; Cat No. A0737, Sigma), in a 37° C. incubator. Afterward, the cells were washed with PBS, and ROS levels were detected by measuring fluorescence DCF via flow cytometry.
In general terms: A flow cytometer gives signals particle by particle.

The test system of the next assay is End1/E6E7 cells. Put plainly: ROS generation by DCFH-DA flow cytometry. The assay is classed as cell-based, human. Here is the method:
as §1

A further assay deals with endometriotic lesions. Put plainly: Gene expression in endometriotic lesion tissue of the animal model. In kind it is in vivo, C57/BL6 mice. Here is the method: Seven-week-old female C57/BL6 mice were purchased from DBL (Eumseong, South Korea). After a 7-day acclimation period, they were subcutaneously injected with 2 mg/50 μL of progesterone two days before surgery. After anesthetizing the mice, the […] was excised and autografted onto the peritoneum to induce endometriosis. After culturing for two weeks, the mice were randomly assigned to groups and administered either a vehicle as the control, fraxetin at 30mg/kg, or dienogest at 1 mg/kg orally for four weeks.

`COc1cc2ccc(=O)oc2c(O)c1O` [fraxetin]: the “relative membrane potential loss rate increase” value in the assay with VK2/E6E7 cells [1] came to 2.6 fold. For the same molecule, the “level of GRP78 compared to control” value in the assay on endometrial cells (20 μM and 50 μM fraxetin) was found to be 1.9 fold. Moreover, in the assay on endometrial cells (50 μM fraxetin), the “JNK phosphorylation (remaining)” value is given as “below 50%”. The eIF2α phosphorylation result in the assay on endometrial cells (fraxetin-treated) is reported as “tended to increase”. In the assay with VK2/E6E7 cells [2] (VK2/E6E7, Example 7 comparison fraxetin vs dienogest), the “relative ROS generation” value is given as over 200%. In the assay on VK2/E6E7 cells [2] (VK2/E6E7, fraxetin-treated), the “ROS generation compared to control” value was “up to 1.5 fold”. Besides, the “relative ROS generation” value in the assay on End1/E6E7 cells (End1/E6E7, Example 7 comparison fraxetin vs dienogest) is “over 150%”. For the same molecule, in the assay on End1/E6E7 cells (End1/E6E7, fraxetin-treated), the “ROS generation compared to control” value was “up to 1.5 fold”. Further, in the assay on endometriotic lesions (endometriotic lesions), the “expression of adhesion-related genes (Icam1, Vcam1, Itga1, Itga5)” value is listed as “inhibited”; the “expression of apoptosis-related genes (Bak1, Bax, Bad, Casp1)” value was “increased”; the “expression of endoplasmic reticulum stress-related genes (Hspa5, Elf2s1, Ern1)” value is on record as “increased”; the “expression of mitochondrial function-related genes (Atp5me, Atp5pb, Atp5po)” value is “decreased”. Further, in the assay on endometriotic lesions (endometriotic lesions, compared to control group), the “mRNA expression of inflammation-related genes (Il4, Cxcl15, Il8, Il21, Tnf, Il4ra, Cxcr1, Cxcr2, Il18r, Il21r, Tnfrsfa)” value is “significantly reduced”. Besides, the “expression of Icam1 and Vcam1 within the lesion tissue” value in the assay with endometriotic lesions (fraxetin-treated group compared to control group) was “reduced”.
